Patent US20240343681A1, “MOLECULES HAVING PESTICIDAL UTILITY AND INTERMEDIATES AND PROCESSES RELATED THERETO” (priority 2021, published 2024)

Key:
target pests = experiment: Screening of separated stereoisomer peaks against target pests; type: in vivo; settings: SFC-separated R,R and S,S isomers (F107 and F108)
Protocol: trans-rac-N-(3-Amino-4-chlorophenyl)-2,2-dichloro-3-(4-fluoro-3-(trifluoromethyl)phenyl)cyclopropane-1-carboxamide (C20, 1.0 g, 2.27 mmol) was added to a solution of 2,6-difluoronicotinic acid (0.36 g, 2.27 mmol) in toluene (25 mL). Pyridine (0.72 mL, 9.05 mmol) was added dropwise, and 2,4,6-tripropyl-1,3,5,2,4,6-trioxatriphosphinane 2,4,6-trioxide as a 50% solution in ethyl acetate (5.8 mL, 9.05 mmol) was added at room temperature. The reaction mixture was warmed to 110° C. and stirred for 16 hours, cooled to room temperature, and concentrated under reduced pressure. The residue was diluted with water (80 mL) and was extracted with ethyl acetate (2×80 mL). The combined organic phases were washed with saturated aqueous sodium chloride, dried over anhydrous sodium sulfate, and filtered, and the filtrate was concentrated under reduced pressure.

[1] = system: Beet Armyworm (Spodoptera exigua, LAPHEG) second instar larva; experiment: Bioassay on beet armyworm (BAW), 128-well diet tray assay; type: in vivo; settings: 50 μg/cm^2 on artificial diet, 25° C., five days
In short: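 Test molecule in 90:10 acetone–water applied at 50 μg/cm^2 onto 1 mL artificial diet and dried; one second-instar larva per well, eight wells. Held 5 days at 25 °C, 14:10 light–dark; percent mortality averaged over the eight wells.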

[2] = system: Yellow Fever Mosquito (Aedes aegypti, AEDSAE) larvae; experiment: Bioassay on yellow fever mosquito (YFM), 96-well plate larval assay; type: in vivo; settings: 4000 ppm (master plate solution), about 1 day-old larvae, 3 days

Row | melting point [°C] | SMILES | efficacy against target pests, Peak-2 versus Peak-1 (target pests) | activity against BAW (percent mortality, averaged over eight wells) [1] | activity against YFM (scored based on mortality) [2]
1 | 109 to 113 | O=C(Nc1cc(NC(=O)C2C(c3cc(Cl)cc(Cl)c3)C2(Cl)Cl)ccc1Cl)c1cc(C(F)(F)F)cc(C(F)(F)F)c1 (racemic) | – | – | –
2 | – | O=C(Nc1cc(NC(=O)[C@H]2[C@H](c3ccc(F)c(C(F)(F)F)c3)C2(Cl)Cl)ccc1Cl)c1ccc(F)nc1F (single isomer, unassigned) [F107] | significantly greater than Peak-1 | – | –
3 | 312 to 316 | O=C(Nc1cc(NC(=O)C2C(c3cc(Cl)cc(Cl)c3)C2(Cl)Cl)ccc1Cl)c1cccc(=O)[nH]1 (racemic) | – | – | –
4 | – | O=C(Nc1cc(NC(=O)[C@H]2[C@H](c3cc(Cl)cc(Cl)c3)C2(Cl)Cl)ccc1F)c1cc(F)cc(F)c1 (racemic) [F62, trans-rac-N-(5-(2,2-Dichloro-3-(3,5-dichlorophenyl)cyclopropane-1-carboxamido)-2-fluorophenyl)-3,5-difluorobenzamide] | – | exhibited activity | exhibited activity
5 | – | N#Cc1ccc(C(=O)Nc2cc(NC(=O)[C@H]3[C@H](c4cc(Cl)cc(Cl)c4)C3(Cl)Cl)ccc2Cl)c(F)c1 (racemic) [F71, trans-rac-N-(2-Chloro-5-(2,2-dichloro-3-(3,5-dichlorophenyl)cyclopropane-1-carboxamido)phenyl)-4-cyano-2-fluorobenzamide] | – | exhibited activity | exhibited activity
6 | – | CC(=O)Nc1ccc(C(=O)Nc2cc(NC(=O)[C@H]3[C@H](c4ccc(F)c(C(F)(F)F)c4)C3(Cl)Cl)ccc2Cl)c(F)c1 (racemic) [F117, trans-rac-4-Acetamido-N-(2-chloro-5-(2,2-dichloro-3-(4-fluoro-3-(trifluoromethyl)phenyl)cyclopropane-1-carboxamido)phenyl)-2-fluorobenzamide] | – | exhibited activity | exhibited activity
7 | – | O=C(Nc1cc(NC(=O)[C@H]2[C@H](c3cc(Cl)cc(Cl)c3)C2(Cl)Cl)ccc1Cl)c1c(F)cccc1F (racemic) [F25, trans-rac-N-(2-Chloro-5-(2,2-dichloro-3-(3,5-dichlorophenyl)cyclopropane-1-carboxamido)phenyl)-2,6-difluorobenzamide] | – | exhibited activity | exhibited activity
8 | – | O=C(Nc1cc(NC(=O)[C@H]2[C@H](c3cc(Cl)cc(Cl)c3)C2(Cl)Cl)ccc1Cl)c1ccccc1Cl (racemic) [F78, trans-rac-2-Chloro-N-(2-chloro-5-(2,2-dichloro-3-(3,5-dichlorophenyl)cyclopropane-1-carboxamido)phenyl)benzamide] | – | exhibited activity | exhibited activity
9 | – | O=C(Nc1cc(NC(=O)[C@H]2[C@H](c3cc(Cl)cc(Cl)c3)C2(Cl)Cl)ccc1Cl)c1cccc(F)c1F (racemic) [F68, trans-rac-N-(2-Chloro-5-(2,2-dichloro-3-(3,5-dichlorophenyl)cyclopropane-1-carboxamido)phenyl)-2,3-difluorobenzamide] | – | exhibited activity | exhibited activity
10 | – | COc1cccc(C(=O)Nc2cc(NC(=O)[C@H]3[C@H](c4cc(Cl)cc(Cl)c4)C3(Cl)Cl)ccc2Cl)c1 (racemic) [F84, trans-rac-N-(2-Chloro-5-(2,2-dichloro-3-(3,5-dichlorophenyl)cyclopropane-1-carboxamido)phenyl)-3-methoxybenzamide] | – | exhibited activity | exhibited activity
11 | – | N#CCC(=O)Nc1cc(NC(=O)[C@H]2[C@H](c3cc(Cl)cc(Cl)c3)C2(Cl)Cl)ccc1Cl (racemic) [F42, trans-rac-2,2-Dichloro-N-(4-chloro-3-(2-cyanoacetamido)phenyl)-3-(3,5-dichlorophenyl)cyclopropanecarboxamide] | – | exhibited activity | exhibited activity
12 | – | O=C(Nc1cccc(NC(=O)C(F)(F)C(F)(F)C(F)(F)F)c1F)[C@H]1[C@H](c2cc(Cl)cc(Cl)c2)C1(Cl)Cl [F19, (1R,3R)-2,2-Dichloro-3-(3,5-dichlorophenyl)-N-(2-fluoro-3-(2,2,3,3,4,4,4-heptafluorobutanamido)phenyl)cyclopropane-1-carboxamide] | – | exhibited activity | exhibited activity
13 | – | CC(CC(=O)Nc1cc(NC(=O)C2C(c3cc(Cl)cc(Cl)c3)C2(Cl)Cl)ccc1F)C(F)(F)F (racemic) [F64, trans-rac-2,2-Dichloro-3-(3,5-dichlorophenyl)-N-(4-fluoro-3-(4,4,4-trifluoro-3-methylbutanamido)phenyl)cyclopropane-1-carboxamide] | – | exhibited activity | exhibited activity
14 | – | O=C(Nc1cc(NC(=O)[C@H]2[C@H](c3cc(Cl)cc(Cl)c3)C2(Cl)Cl)ccc1Cl)c1ccno1 (racemic) [F35, trans-rac-N-(2-Chloro-5-(2,2-dichloro-3-(3,5-dichlorophenyl)cyclopropane-1-carboxamido)phenyl)isoxazole-5-carboxamide] | – | exhibited activity | exhibited activity
15 | – | O=C(Nc1cc(NC(=O)[C@H]2[C@H](c3ccc(F)c(C(F)(F)F)c3)C2(Cl)Cl)ccc1Cl)c1ccc(NC(=O)C(F)F)cc1F (racemic) [F111, trans-rac-N-(2-Chloro-5-(2,2-dichloro-3-(4-fluoro-3-(trifluoromethyl)phenyl)cyclopropane-1-carboxamido)phenyl)-4-(2,2-difluoroacetamido)-2-fluorobenzamide] | – | exhibited activity | exhibited activity
16 | – | Cc1cc(F)ccc1C(=O)Nc1cc(NC(=O)[C@H]2[C@H](c3cc(Cl)cc(Cl)c3)C2(Cl)Cl)ccc1Cl (racemic) [F77, trans-rac-N-(2-Chloro-5-(2,2-dichloro-3-(3,5-dichlorophenyl)cyclopropane-1-carboxamido)phenyl)-4-fluoro-2-methylbenzamide] | – | exhibited activity | exhibited activity
17 | – | O=C(Nc1cc(NC(=O)[C@H]2[C@H](c3cc(Cl)cc(Cl)c3)C2(Cl)Cl)ccc1Cl)c1cc(Cl)cc(Cl)c1 (racemic) [F80, trans-rac-3,5-Dichloro-N-(2-chloro-5-(2,2-dichloro-3-(3,5-dichlorophenyl)cyclopropane-1-carboxamido)phenyl)benzamide] | – | exhibited activity | exhibited activity
